# Results published in patent publication US9932637B2, “Genetic polymorphisms associated with cardiovascular disorders and drug response, methods of detection and uses thereof” (CELERA CORPORATION, priority 2003, dated 2018).
# System: patients with prior myocardial infarction (CARE study)
# Assay: CARE: association of SNPs with pravastatin treatment in cardiovascular events prevention (logistic regression, odds ratio pravastatin vs placebo by genotype; Table 8)
# Format: in vivo, human
# Conditions: for Fatal/Non-fatal Atherosclerotic CV Disease, n/total (%) / Hosp. for Cardiovascular Disease, n/total (%) / Total Cardiovascular Disease Events, n/total (%) / Prava vs. Placebo Odds Ratio, 0 Rare Alleles / Prava vs. Placebo Odds Ratio, 1 Rare Alleles / Prava vs. Placebo Odds Ratio, 2 Rare Alleles / Fatal CHD/Definite Non-fatal MI, n/total (%) / Total Coronary Heart Disease Events, n/total (%): All Patients; for Fatal/Non-fatal Atherosclerotic CV Disease, n/total (%) / Hosp. for Cardiovascular Disease, n/total (%) / Total Cardiovascular Disease Events, n/total (%) / Fatal CHD/Definite Non-fatal MI, n/total (%) / Total Coronary Heart Disease Events, n/total (%): Prava; for Stroke, n/total (%): PECAM1 hCV16170911, All Patients, Prava arm
# Source text: In order to identify genetic markers associated with acute coronary events (e.g. MI, stroke, unstable angina, congestive heart failure, etc.) or response to statin treatment for the prevention of coronary events, samples from the Cholesterol and Recurrent Events (CARE) study (a randomized multicentral double-blinded trial on secondary prevention of acute coronary events with pravastatin) (Sacks et al., 1991, Am. J. Cardiol. 68: 1436-1446) were genotyped. A well-documented myocardial infarction (MI) was one of the enrollment criteria for entry into the CARE study. Patients were enrolled in the CARE trial from 80 participating study centers. […] Patients were randomized to receive either 40 mg of pravastatin once daily or a matching placebo. The primary endpoint of the trial was death from coronary heart disease and the median duration of follow-up was 5.0 years (range, 4.0 to 6.2 years). […] Secondary endpoints of other related cardiovascular or metabolic disease events, and changes in clinical variables were also recorded in pravastatin-treated and placebo groups. All individuals included in the study had signed a written informed consent form and the study protocol was approved by the respective Institutional Review Boards (IRBs).
# For genotyping SNPs in CARE patient samples, DNA was extracted from blood samples using conventional DNA extraction methods such as the QIA-amp kit from Qiagen. Genotypes were obtained on an ABI PRISM® 7900HT Sequence Detection PCR system (Applied Biosystems, Foster City, Calif.) by kinetic allele-specific PCR, similar to the method described by Germer et al. (Germer S., Holland M. J., Higuchi R. 2000, Genome Res. 10: 258-266).
# Statistical analysis for association of SNPs with pravastatin treatment in cardiovascular events prevention (Table 8) was carried out using an overall logistic regression model that included an intercept, a parameter for the effect of a genotype containing two rare alleles versus a genotype containing no rare alleles, a parameter for the effect of a genotype containing one rare allele versus a genotype containing no rare alleles, a parameter for the effect of use of pravastatin versus the use of placebo, and parameters for the interaction effects between SNP genotypes and pravastatin use. The test of the overall model is a chi-square test with two degrees of freedom for analyses containing all three genotypes, and one degree of freedom for analyses containing two genotypes.
# Effect sizes were estimated through odds ratios (pravastatin group versus placebo) for carriers of each genotype (groups of 0, 1, and 2 minor allele carriers). The effect was considered to be significant if p-value for testing whether any of the interactions between SNP genotypes and pravastatin use were <0.05. […] Odds ratios less than one indicate that the specific SNP allele has a protective effect and odds ratios greater than one indicate that the specific SNP allele has an adverse effect.
# [1] = NPC1 hCV7490135, Cardiovascular Mortality
# [2] = NPC1 hCV7490135, Fatal Atherosclerotic Cardiovascular Disease
# [3] = NPC1 hCV7490135, Fatal/Non-fatal Atherosclerotic CV Disease
# [4] = NPC1 hCV7490135, Hosp. for Cardiovascular Disease
# [5] = NPC1 hCV7490135, Total Cardiovascular Disease Events
# [6] = NPC1 hCV7490135, Total Coronary Heart Disease Events
# [7] = NPC1 hCV25472673, Fatal CHD/Definite Non-fatal MI
# [8] = NPC1 hCV25472673, Fatal/Non-fatal Atherosclerotic CV Disease
# [9] = NPC1 hCV25472673, Hosp. for Cardiovascular Disease
# [10] = NPC1 hCV25472673, Total Cardiovascular Disease Events
# [11] = NPC1 hCV25472673, Total Coronary Heart Disease Events
# [12] = PEMT hCV7443062, Fatal CHD/Definite Non-fatal MI
smiles,measurement,setting,value
CC[C@H](C)C(=O)O[C@H]1C[C@H](O)C=C2C=C[C@H](C)[C@H](CC[C@@H](O)C[C@@H](O)CC(=O)O)[C@H]21 [pravastatin],"Fatal/Non-fatal Atherosclerotic CV Disease, n/total (%)","NPC1 hCV7490135, 2 Rare Alleles, n/total 93/324",(28.7%)
same,"Hosp. for Cardiovascular Disease, n/total (%)","NPC1 hCV7490135, 2 Rare Alleles, n/total 117/324",(36.1%)
same,"Total Cardiovascular Disease Events, n/total (%)","NPC1 hCV7490135, 2 Rare Alleles, n/total 119/324",(36.7%)
same,"Prava vs. Placebo Odds Ratio, 0 Rare Alleles",[1],1.30
same,"Prava vs. Placebo Odds Ratio, 1 Rare Alleles",[1],0.83
same,"Prava vs. Placebo Odds Ratio, 2 Rare Alleles",[1],0.20
same,"Prava vs. Placebo Odds Ratio, 0 Rare Alleles",[2],1.25
same,"Prava vs. Placebo Odds Ratio, 1 Rare Alleles",[2],0.83
same,"Prava vs. Placebo Odds Ratio, 2 Rare Alleles",[2],0.20
same,"Prava vs. Placebo Odds Ratio, 0 Rare Alleles",[3],1.07
same,"Prava vs. Placebo Odds Ratio, 1 Rare Alleles",[3],0.73
same,"Prava vs. Placebo Odds Ratio, 2 Rare Alleles",[3],0.56
same,"Prava vs. Placebo Odds Ratio, 0 Rare Alleles",[4],1.01
same,"Prava vs. Placebo Odds Ratio, 1 Rare Alleles",[4],0.76
same,"Prava vs. Placebo Odds Ratio, 2 Rare Alleles",[4],0.52
same,"Prava vs. Placebo Odds Ratio, 0 Rare Alleles",[5],1.02
same,"Prava vs. Placebo Odds Ratio, 1 Rare Alleles",[5],0.75
same,"Prava vs. Placebo Odds Ratio, 2 Rare Alleles",[5],0.52
same,"Prava vs. Placebo Odds Ratio, 0 Rare Alleles",[6],1.07
same,"Prava vs. Placebo Odds Ratio, 1 Rare Alleles",[6],0.72
same,"Prava vs. Placebo Odds Ratio, 2 Rare Alleles",[6],0.58
same,"Fatal CHD/Definite Non-fatal MI, n/total (%)","NPC1 hCV25472673, 0 Rare Alleles, n/total 65/596",(10.9%)
same,"Total Coronary Heart Disease Events, n/total (%)","NPC1 hCV25472673, 0 Rare Alleles, n/total 193/596",(32.4%)
same,"Fatal/Non-fatal Atherosclerotic CV Disease, n/total (%)","NPC1 hCV25472673, 0 Rare Alleles, n/total 221/596",(37.1%)
same,"Hosp. for Cardiovascular Disease, n/total (%)","NPC1 hCV25472673, 0 Rare Alleles, n/total 262/596",(44.0%)
same,"Total Cardiovascular Disease Events, n/total (%)","NPC1 hCV25472673, 0 Rare Alleles, n/total 274/596",(46.0%)
same,"Fatal CHD/Definite Non-fatal MI, n/total (%)","NPC1 hCV25472673, 1 Rare Allele, n/total 56/664",(8.4%)
same,"Total Coronary Heart Disease Events, n/total (%)","NPC1 hCV25472673, 1 Rare Allele, n/total 186/664",(28.0%)
same,"Fatal/Non-fatal Atherosclerotic CV Disease, n/total (%)","NPC1 hCV25472673, 1 Rare Allele, n/total 213/664",(32.1%)
same,"Hosp. for Cardiovascular Disease, n/total (%)","NPC1 hCV25472673, 1 Rare Allele, n/total 255/664",(38.4%)
same,"Total Cardiovascular Disease Events, n/total (%)","NPC1 hCV25472673, 1 Rare Allele, n/total 259/664",(39.0%)
same,"Fatal CHD/Definite Non-fatal MI, n/total (%)","NPC1 hCV25472673, 2 Rare Alleles, n/total 19/242",(7.9%)
same,"Total Coronary Heart Disease Events, n/total (%)","NPC1 hCV25472673, 2 Rare Alleles, n/total 59/242",(24.4%)
same,"Fatal/Non-fatal Atherosclerotic CV Disease, n/total (%)","NPC1 hCV25472673, 2 Rare Alleles, n/total 68/242",(28.1%)
same,"Hosp. for Cardiovascular Disease, n/total (%)","NPC1 hCV25472673, 2 Rare Alleles, n/total 88/242",(36.4%)
same,"Total Cardiovascular Disease Events, n/total (%)","NPC1 hCV25472673, 2 Rare Alleles, n/total 90/242",(37.2%)
same,"Prava vs. Placebo Odds Ratio, 0 Rare Alleles",[7],1.00
same,"Prava vs. Placebo Odds Ratio, 1 Rare Alleles",[7],0.65
same,"Prava vs. Placebo Odds Ratio, 2 Rare Alleles",[7],0.41
same,"Prava vs. Placebo Odds Ratio, 0 Rare Alleles",[8],1.03
same,"Prava vs. Placebo Odds Ratio, 1 Rare Alleles",[8],0.73
same,"Prava vs. Placebo Odds Ratio, 2 Rare Alleles",[8],0.41
same,"Prava vs. Placebo Odds Ratio, 0 Rare Alleles",[9],1.02
same,"Prava vs. Placebo Odds Ratio, 1 Rare Alleles",[9],0.72
same,"Prava vs. Placebo Odds Ratio, 2 Rare Alleles",[9],0.40
same,"Prava vs. Placebo Odds Ratio, 0 Rare Alleles",[10],1.03
same,"Prava vs. Placebo Odds Ratio, 1 Rare Alleles",[10],0.71
same,"Prava vs. Placebo Odds Ratio, 2 Rare Alleles",[10],0.39
same,"Prava vs. Placebo Odds Ratio, 0 Rare Alleles",[11],1.01
same,"Prava vs. Placebo Odds Ratio, 1 Rare Alleles",[11],0.73
same,"Prava vs. Placebo Odds Ratio, 2 Rare Alleles",[11],0.44
same,"Stroke, n/total (%)",0 Rare Alleles,(1.5%)
same,"Stroke, n/total (%)",1 Rare Allele,(3.1%)
same,"Stroke, n/total (%)",2 Rare Alleles,(0.9%)
same,"Fatal CHD/Definite Non-fatal MI, n/total (%)","PEMT hCV7443062, 0 Rare Alleles, n/total 34/478",(7.1%)
same,"Fatal CHD/Definite Non-fatal MI, n/total (%)","PEMT hCV7443062, 1 Rare Allele, n/total 72/735",(9.8%)
same,"Fatal CHD/Definite Non-fatal MI, n/total (%)","PEMT hCV7443062, 2 Rare Alleles, n/total 34/305",(11.1%)
same,"Prava vs. Placebo Odds Ratio, 0 Rare Alleles",[12],0.42
same,"Prava vs. Placebo Odds Ratio, 1 Rare Alleles",[12],0.87
